Laboratory results: US10597388B2, “Pyridazinone herbicides” (FMC CORPORATION, priority 2014, dated 2020)

Experiments:
Type in all cases: in vivo
kochia (Kochia scoparia) = assay: Test A greenhouse herbicide test, pre- and postemergence
How it was run: (§1)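 Visual injury ratings, 0 (no effect) to 100 (complete control), versus untreated plants after roughly 10 d in a greenhouse. Compounds, formulated in a surfactant-containing non-phytotoxic solvent, were sprayed on loam–sand soil after sowing (pre) or on one- to two-leaf plants 2–10 cm tall (post).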

[1] = tested on: barnyardgrass (Echinochloa crus-galli); assay: as above
How it was run: as §1

corn (Zea mays) = assay: Test C greenhouse herbicide test, pre- and postemergence
How it was run: (§2)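 Visual 0–100 injury score (100 = complete control) taken against untreated controls after 13–15 d in greenhouse. Test chemicals, formulated in solvent plus surfactant, applied preemergence to seeds in loam–sand soil or postemergence to 1- to 4-leaf plants (2–18 cm).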

[2] = tested on: lambsquarters (Chenopodium album); assay: as above
How it was run: as §2

[3] = tested on: oilseed rape (Brassica napus); assay: as above
How it was run: as §2

[4] = tested on: morningglory (Ipomoea coccinea); assay: as above
How it was run: as §2

[5] = tested on: crabgrass, large (large crabgrass, Digitaria sanguinalis); assay: as above
How it was run: as §2

[6] = tested on: foxtail, giant (giant foxtail, Setaria faberii); assay: as above
How it was run: as §2

[7] = tested on: wheat (winter wheat, Triticum aestivum); assay: as above
How it was run: as §2

[8] = tested on: johnsongrass (Sorghum halepense); assay: as above
How it was run: as §2

[9] = tested on: waterhemp (common waterhemp, Amaranthus rudis); assay: as above
How it was run: as §2

[10] = Postemergence, 125 g ai/ha, visual rating after approx. 10 d, 0 to 100 scale (0 no effect, 100 complete control)
[11] = Postemergence, 500 g ai/ha, 0 to 100 scale, 0 is no effect, 100 is complete control
[12] = Preemergence, 125 g ai/ha, 0 to 100 scale where 0 is no effect and 100 is complete control
[13] = Preemergence, 500 g ai/ha, 0 to 100 scale, 0 no effect, 100 complete control
[14] = Postemergence, 31 g ai/ha, 0 to 100 scale (0 no effect, 100 complete control)
[15] = Postemergence, 125 g ai/ha, scale 0 to 100, 0 is no effect, 100 is complete control
[16] = Postemergence, 250 g ai/ha, scale 0 to 100, 0 no effect, 100 complete control, 13 to 15 d
[17] = Preemergence, 31 g ai/ha, scale 0 to 100, 0 is no effect, 100 is complete control
[18] = Preemergence, 62 g ai/ha, scale 0 to 100, 0 is no effect, 100 is complete control
[19] = Preemergence, 125 g ai/ha, scale 0 to 100, 0 is no effect, 100 is complete control
[20] = Preemergence, 250 g ai/ha, scale 0 to 100, 0 no effect, 100 complete control
[21] = postemergence, 62 g ai/ha, scale 0 to 100, 0 no effect, 100 complete control

Cc1cc(C)c2ccccc2c1-c1c(O)c(C)nn(C)c1=O [Compound 21]
Plant response rating, Kochia (kochia (Kochia scoparia); [10]): 100 | Kochia plant response rating (kochia (Kochia scoparia); [11]): 100 | Kochia plant response rating (kochia (Kochia scoparia); [12]): 30 | Plant response rating, Kochia (kochia (Kochia scoparia); [13]): 90 | Plant response rating, Barnyardgrass [1, 10]: 90 | Barnyardgrass plant response rating [1, 11]: 90 | Barnyardgrass plant response rating [1, 12]: 90 | Plant response rating, Barnyardgrass [1, 13]: 100 | Corn plant response rating (corn (Zea mays); [14]): 5 | Plant response rating, Corn (corn (Zea mays); [15]): 20 | Plant response rating, Corn (corn (Zea mays); [16]): 20 | Plant response rating, Corn (corn (Zea mays); [17]): 0 | Plant response rating, Corn (corn (Zea mays); [18]): 15 | Plant response rating, Corn (corn (Zea mays); [19]): 40 | Corn plant response rating (corn (Zea mays); [20]): 65 | Corn plant response rating (corn (Zea mays); [21]): 65 | Lambsquarters plant response rating [2, 14]: 85 | Plant response rating, Lambsquarters [2, 15]: 95 | Plant response rating, Lambsquarters [2, 16]: 98 | Plant response rating, Lambsquarters [2, 17]: 90 | Plant response rating, Lambsquarters [2, 18]: 98 | Plant response rating, Lambsquarters [2, 19]: 98 | Lambsquarters plant response rating [2, 20]: 100 | Lambsquarters plant response rating [2, 21]: 90 | Oilseed Rape plant response rating [3, 14]: 65 | Plant response rating, Oilseed Rape [3, 15]: 100 | Plant response rating, Oilseed Rape [3, 16]: 100 | Plant response rating, Oilseed Rape [3, 17]: 90 | Plant response rating, Oilseed Rape [3, 18]: 100 | Plant response rating, Oilseed Rape [3, 19]: 100 | Oilseed Rape plant response rating [3, 20]: 100 | Oilseed Rape plant response rating [3, 21]: 80 | Morningglory plant response rating [4, 14]: 85 | Plant response rating, Morningglory [4, 15]: 100 | Plant response rating, Morningglory [4, 16]: 100 | Plant response rating, Morningglory [4, 17]: 95 | Plant response rating, Morningglory [4, 18]: 98 | Plant response rating, Morningglory [4, 19]: 100 | Morningglory plant response rating [4, 20]: 100 | Morningglory plant response rating [4, 21]: 100 | Crabgrass, Large plant response rating [5, 14]: 30 | Plant response rating, Crabgrass, Large [5, 15]: 40 | Plant response rating, Crabgrass, Large [5, 16]: 55 | Plant response rating, Crabgrass, Large [5, 17]: 35 | Plant response rating, Crabgrass, Large [5, 18]: 85 | Plant response rating, Crabgrass, Large [5, 19]: 85 | Crabgrass, Large plant response rating [5, 20]: 100 | Crabgrass, Large plant response rating [5, 21]: 35 | Foxtail, Giant plant response rating [6, 14]: 55 | Plant response rating, Foxtail, Giant [6, 15]: 90 | Plant response rating, Foxtail, Giant [6, 16]: 95 | Plant response rating, Foxtail, Giant [6, 17]: 100 | Plant response rating, Foxtail, Giant [6, 18]: 100 | Plant response rating, Foxtail, Giant [6, 19]: 100 | Foxtail, Giant plant response rating [6, 20]: 100 | Foxtail, Giant plant response rating [6, 21]: 80 | Wheat plant response rating [7, 14]: 0 | Plant response rating, Wheat [7, 15]: 35 | Plant response rating, Wheat [7, 16]: 35 | Plant response rating, Wheat [7, 18]: 5 | Plant response rating, Wheat [7, 19]: 30 | Wheat plant response rating [7, 20]: 40 | Wheat plant response rating [7, 21]: 5 | Johnsongrass plant response rating [8, 14]: 10 | Plant response rating, Johnsongrass [8, 15]: 20 | Plant response rating, Johnsongrass [8, 16]: 35 | Plant response rating, Johnsongrass [8, 17]: 10 | Plant response rating, Johnsongrass [8, 18]: 10 | Plant response rating, Johnsongrass [8, 19]: 35 | Johnsongrass plant response rating [8, 20]: 50 | Johnsongrass plant response rating [8, 21]: 20 | Waterhemp plant response rating [9, 14]: 40 | Plant response rating, Waterhemp [9, 15]: 85 | Plant response rating, Waterhemp [9, 16]: 80 | Plant response rating, Waterhemp [9, 18]: 95 | Plant response rating, Waterhemp [9, 19]: 100 | Waterhemp plant response rating [9, 20]: 100 | Waterhemp plant response rating [9, 21]: 75
